# Measured values published in patent US12404244B2, “Pan-KIT kinase inhibitor having quinoline structure and application thereof” (Tarapeutics Science Inc., priority 2018, dated 2025).
# Legend:
# [1] = system: TEL-KIT/S709F-BaF3; assay: Proliferation of TEL-KIT/S709F-BaF3 cells (CCK-8); type: cell-based; details: Mus musculus; 72 hours, CCK-8; read-out: GI50 TEL-KIT/S709F-BaF3
# From the text: (§1) Compounds as provided herein were further evaluated for their inhibitory effects on proliferation of cancer cells by testing their effects on growth of cancer cells. In this example the following cells were used: primary mouse B cells BaF3 (purchased from ATCC), GIST-T1 cells of the human gastrointestinal stromal tumor cell line (expressing wild-type KIT gene) (purchased from Cosmo Bio Co., Ltd. (Japan)). The present lab further constructed and used the following: mouse Tel-Kit-BaF3 (stably expressing KIT wild-type kinase), mouse Tel-Kit/T670I-BaF3 (stably expressing KIT T670I mutant kinase), mouse Tel-Kit/V559A-BaF3 (stably expressing KIT V559A mutant kinase), mouse Tel-Kit/V559D-BaF3 (stably expressing KIT V559D mutant kinase), mouse Tel-Kit/V559G-BaF3 (stably expressing KIT V559G mutant kinase), mouse Tel-Kit/V560D-BaF3 (stably expressing KIT V560D mutant kinase), mouse Tel-Kit/L576P-BaF3 (stably expressing KIT L576P mutant kinase), mouse Tel-Kit/V654A-BaF3 (stably expressing KIT V654A mutant kinase), mouse Tel-Kit/V654A/V559D-BaF3 (stably expressing KIT V654A V559D mutant kinase), mouse Tel-Kit/T670E-BaF3 (stably expressing KIT T670E mutant kinase), mouse Tel-Kit/T670I/V559D-BaF3 (stably expressing KIT T670I V559D mutant kinase), mouse Tel-Kit/S709F-BaF3 (stably expressing KIT S709F mutant kinase), mouse Tel-Kit/D816E-BaF3 (stably expressing KIT D816E mutant kinase), mouse Tel-Kit/D816H-BaF3 (stably expressing KIT D816H mutant kinase), mouse Tel-Kit/D820E-BaF3 (stably expressing KIT D820E mutant kinase), mouse Tel-Kit/D820G-BaF3 (stably expressing KIT D820G mutant kinase), mouse Tel-Kit/D820Y-BaF3 (stably expressing KIT D820Y mutant kinase), mouse Tel-Kit/N822K-BaF3 (stably expressing KIT N822K mutant kinase), mouse Tel-Kit/Y823D-BaF3 (stably expressing KIT Y823D mutant kinase), mouse Tel-Kit/A829P-BaF3 (stably expressing KIT A829P mutant kinase), GIST-T1-T670I cells of the human gastrointestinal stromal tumor cell line (expressing KIT-T670I mutant gene). The above cell lines were constructed by: amplifying respectively the sequences of human KIT and various mutant kinase regions of KIT via PCR, inserting the fragments respectively into MSCV-Puro vectors having a N-terminal TEL fragment and/or a NPM fragment and/or a TPR fragment (purchased from Clontech), transfecting mouse BaF3 cells with the vectors by means of retrovirus to obtain stably transfected cells, removing the growth factor IL-3, and thereby eventually obtaining cell lines that depend on the transferred protein KIT or various mutants of KIT. […]
# [2] = system: TEL-KIT/D816H-BaF3; assay: Proliferation of TEL-KIT/D816H-BaF3 cells (CCK-8); type: cell-based; details: Mus musculus; 72 hours, CCK-8; read-out: GI50 TEL-KIT/D816H-BaF3
# From the text: as §1
# [3] = system: TEL-KIT/V559D-BaF3; assay: Proliferation of TEL-KIT/V559D-BaF3 cells (CCK-8); type: cell-based; details: Mus musculus; 72 hours, CCK-8; read-out: GI50 TEL-KIT/V559D-BaF3
# From the text: as §1
# [4] = system: GIST-T1; assay: Proliferation of GIST-T1 cells (CCK-8); type: cell-based; details: Homo sapiens, GISTT1; 72 hours, CCK-8; read-out: GI50 GIST-T1
# From the text: as §1, with “gene).” for “gene). The above cell lines were constructed by: amplifying respectively the sequences of human KIT and various mutant kinase regions of KIT via PCR, inserting the fragments respectively into MSCV-Puro vectors having a N-terminal TEL fragment and/or a NPM fragment and/or a TPR fragment (purchased from Clontech), transfecting mouse BaF3 cells with the vectors by means of retrovirus to obtain stably transfected cells, removing the growth factor IL-3, and thereby eventually obtaining cell lines that depend on the transferred protein KIT or various mutants of KIT.”
# (§2) The cells after incubation were detected using CCK-8 (purchased from MedChem Express, Shanghai, China) cell viability assay kit (CCK-8 may be reduced by dehydrogenase in living cells to a highly water-soluble yellow formazan product, and the amount of the resultant formazan is proportional to the number of living cells), the number of living cells were quantified with a microplate reader, and GI50 of the compounds and the control compounds were calculated (the results shown in Table 2 and Table 3).
# [5] = system: TEL-KIT/T670I/V559D-BaF3; assay: Proliferation of TEL-KIT/T670I/V559D-BaF3 cells (CCK-8); type: cell-based; details: Mus musculus; 72 hours, CCK-8; read-out: GI50 TEL-KIT/T670I/V559D-BaF3
# From the text: as §1
# [6] = system: TEL-KIT/D820G-BaF3; assay: Proliferation of TEL-KIT/D820G-BaF3 cells (CCK-8); type: cell-based; details: Mus musculus; 72 hours, CCK-8; read-out: GI50 TEL-KIT/D820G-BaF3
# From the text: as §1
# [7] = system: GIST-T1/T670I; assay: Proliferation of GIST-T1/T670I cells (CCK-8); type: cell-based; details: Homo sapiens, GISTT1; 72 hours, CCK-8; read-out: GI50 GIST-T1/T670I
# From the text: as §1, with “gene).” for “gene). The above cell lines were constructed by: amplifying respectively the sequences of human KIT and various mutant kinase regions of KIT via PCR, inserting the fragments respectively into MSCV-Puro vectors having a N-terminal TEL fragment and/or a NPM fragment and/or a TPR fragment (purchased from Clontech), transfecting mouse BaF3 cells with the vectors by means of retrovirus to obtain stably transfected cells, removing the growth factor IL-3, and thereby eventually obtaining cell lines that depend on the transferred protein KIT or various mutants of KIT.”
# as §2
# [8] = system: TEL-KIT/T670I-BaF3; assay: Proliferation of TEL-KIT/T670I-BaF3 cells (CCK-8); type: cell-based, mouse; details: Mus musculus; 72 hours, CCK-8; read-out: GI50 TEL-KIT/T670I-BaF3
# From the text: Compounds as provided herein were further evaluated for their inhibitory effects on proliferation of cancer cells by testing their effects on growth of cancer cells. In this example the following cells were used: primary mouse B cells BaF3 (purchased from ATCC), GIST-T1 cells of the human gastrointestinal stromal tumor cell line (expressing wild-type KIT gene) (purchased from Cosmo Bio Co., Ltd. (Japan)). The present lab further constructed and used the following: mouse Tel-Kit-BaF3 (stably expressing KIT wild-type kinase), mouse Tel-Kit/T670I-BaF3 (stably expressing KIT T670I mutant kinase), mouse Tel-Kit/V559A-BaF3 (stably expressing KIT V559A mutant kinase), mouse Tel-Kit/V559D-BaF3 (stably expressing KIT V559D mutant kinase), mouse Tel-Kit/V559G-BaF3 (stably expressing KIT V559G mutant kinase), mouse Tel-Kit/V560D-BaF3 (stably expressing KIT V560D mutant kinase), mouse Tel-Kit/L576P-BaF3 (stably expressing KIT L576P mutant kinase), mouse Tel-Kit/V654A-BaF3 (stably expressing KIT V654A mutant kinase), mouse Tel-Kit/V654A/V559D-BaF3 (stably expressing KIT V654A V559D mutant kinase), mouse Tel-Kit/T670E-BaF3 (stably expressing KIT T670E mutant kinase), mouse Tel-Kit/T670I/V559D-BaF3 (stably expressing KIT T670I V559D mutant kinase), mouse Tel-Kit/S709F-BaF3 (stably expressing KIT S709F mutant kinase), mouse Tel-Kit/D816E-BaF3 (stably expressing KIT D816E mutant kinase), mouse Tel-Kit/D816H-BaF3 (stably expressing KIT D816H mutant kinase), mouse Tel-Kit/D820E-BaF3 (stably expressing KIT D820E mutant kinase), mouse Tel-Kit/D820G-BaF3 (stably expressing KIT D820G mutant kinase), mouse Tel-Kit/D820Y-BaF3 (stably expressing KIT D820Y mutant kinase), mouse Tel-Kit/N822K-BaF3 (stably expressing KIT N822K mutant kinase), mouse Tel-Kit/Y823D-BaF3 (stably expressing KIT Y823D mutant kinase), mouse Tel-Kit/A829P-BaF3 (stably expressing KIT A829P mutant kinase), GIST-T1-T670I cells of the human gastrointestinal stromal tumor cell line (expressing KIT-T670I mutant gene). The above cell lines were constructed by: amplifying respectively the sequences of human KIT and various mutant kinase regions of KIT via PCR, inserting the fragments respectively into MSCV-Puro vectors having a N-terminal TEL fragment and/or a NPM fragment and/or a TPR fragment (purchased from Clontech), transfecting mouse BaF3 cells with the vectors by means of retrovirus to obtain stably transfected cells, removing the growth factor IL-3, and thereby eventually obtaining cell lines that depend on the transferred protein KIT or various mutants of KIT. The GIST-T1-T670I (expressing C-KIT-T670I mutant gene) cell line was constructed by our laboratory as follows: designing sgRNA that targeted a region around T670 of the KIT gene with CRISPR Design Tool (website: crispr.mit.edu, Zhang Feng Lab), cloning it into pSpCas9(BB)-2A-Puro vector; co-transfecting cells with the resultant vector and a single-stranded oligonucleotide having T670I site mutation that is near to T670, subjecting the resultant to antibiotics screening, followed by dilution, and monocellular culture in a 96-well plate; validating the site T670 of the cells by sequence detection via Sanger sequencing.
# [9] = system: TEL-KIT/V560D-BaF3; assay: Proliferation of TEL-KIT/V560D-BaF3 cells (CCK-8); type: cell-based; details: Mus musculus; 72 hours, CCK-8; read-out: GI50 TEL-KIT/V560D-BaF3
# From the text: as §1
# [10] = system: TEL-KIT/T670E-BaF3; assay: Proliferation of TEL-KIT/T670E-BaF3 cells (CCK-8); type: cell-based; details: Mus musculus; 72 hours, CCK-8; read-out: GI50 TEL-KIT/T670E-BaF3
# From the text: as §1
# [11] = system: TEL-KIT/V559G-BaF3; assay: Proliferation of TEL-KIT/V559G-BaF3 cells (CCK-8); type: cell-based; details: Mus musculus; 72 hours, CCK-8; read-out: GI50 TEL-KIT/V559G-BaF3
# From the text: as §1
# [12] = system: TEL-KIT/V559A-BaF3; assay: Proliferation of TEL-KIT/V559A-BaF3 cells (CCK-8); type: cell-based; details: Mus musculus; 72 hours, CCK-8; read-out: GI50 TEL-KIT/V559A-BaF3
# From the text: as §1
# [13] = system: TEL-KIT/V654A-BaF3; assay: Proliferation of TEL-KIT/V654A-BaF3 cells (CCK-8); type: cell-based; details: Mus musculus; 72 hours, CCK-8; read-out: GI50 TEL-KIT/V654A-BaF3
# From the text: as §1
# [14] = system: TEL-KIT/D820Y-BaF3; assay: Proliferation of TEL-KIT/D820Y-BaF3 cells (CCK-8); type: cell-based; details: Mus musculus; 72 hours, CCK-8; read-out: GI50 TEL-KIT/D820Y-BaF3
# From the text: as §1
# [15] = system: TEL-KIT/D816E-BaF3; assay: Proliferation of TEL-KIT/D816E-BaF3 cells (CCK-8); type: cell-based; details: Mus musculus; 72 hours, CCK-8; read-out: GI50 TEL-KIT/D816E-BaF3
# From the text: as §1
# [16] = system: TEL-KIT/D820E-BaF3; assay: Proliferation of TEL-KIT/D820E-BaF3 cells (CCK-8); type: cell-based; details: Mus musculus; 72 hours, CCK-8; read-out: GI50 TEL-KIT/D820E-BaF3
# From the text: as §1
# [17] = system: TEL-KIT/N822K-BaF3; assay: Proliferation of TEL-KIT/N822K-BaF3 cells (CCK-8); type: cell-based; details: Mus musculus; 72 hours, CCK-8; read-out: GI50 TEL-KIT/N822K-BaF3
# From the text: as §1
# [18] = system: TEL-KIT/Y823D-BaF3; assay: Proliferation of TEL-KIT/Y823D-BaF3 cells (CCK-8); type: cell-based; details: Mus musculus; 72 hours, CCK-8; read-out: GI50 TEL-KIT/Y823D-BaF3
# From the text: as §1
# [19] = system: TEL-KIT/V654A/V559D-BaF3; assay: Proliferation of TEL-KIT/V654A/V559D-BaF3 cells (CCK-8); type: cell-based; details: Mus musculus; 72 hours, CCK-8; read-out: GI50 TEL-KIT/V654A/V559D-BaF3
# From the text: as §1
# [20] = system: TEL-KIT/A829P-BaF3; assay: Proliferation of TEL-KIT/A829P-BaF3 cells (CCK-8); type: cell-based; details: Mus musculus; 72 hours, CCK-8; read-out: GI50 TEL-KIT/A829P-BaF3
# From the text: as §1
structure (smiles),measurement,setting,value
"Cc1ccc(NC(=O)c2ccc(CN3CCN(C)CC3)cc2)cc1Nc1nccc(-c2cccnc2)n1 [Imatinib, reference compound]",GI50,[1],115 nM
same,GI50,[2],651 nM
same,GI50,[3],10 nM
same,GI50,[4],15 nM
same,GI50,[5],> 10 µM
same,GI50,[6],337 nM
same,GI50,[7],> 10 µM
same,GI50,[8],> 10 µM
same,GI50,[9],3 nM
same,GI50,[10],4.08 µM
same,GI50,[11],8 nM
same,GI50,[12],905 nM
same,GI50,[13],1410 nM
same,GI50,[14],435 nM
same,GI50,[15],174 nM
same,GI50,[16],35 nM
same,GI50,[17],1470 nM
same,GI50,[18],5.87 µM
same,GI50,[19],608 nM
same,GI50,[20],580 nM
